Measured values published in patent US9499570B2, “Boron containing small molecules” (priority 2010, dated 2016).
Entries after “also recorded” stand apart in the source; their conditions may differ.

Tested on: Schistosoma mansoni schistosomula
Experiment: Schistosoma mansoni schistosomula phenotype screen in vitro
Conditions: First Set
From the text: Puerto Rican isolates of S. mansoni using Biomphalaria glabrata snails and golden hamsters as intermediate and definitive hosts, respectively, were maintained and handled in the University of California-San Francisco Sandler Center for Tropical Medicine. Patent B. glabrata snails (6-8 weeks after exposure to 5-10 infectious miracidia) were induced to shed infective larvae (cercariae) under light stimulus into the surrounding water. Cercariae were washed in rounds of ice-cold water and concentrated through and over sieves of varying pore sizes. They were then mechanically sheared (separation of heads from tails) as described in Colley D G, et al. Exp Parasitol 1974, 35:44-51, in ice-cold Incomplete Medium 169 (as described in Basch P F. J Parasitol 1981, 67:179-185, minus FBS and antibiotics) by passing 15 times through a double headed 22-gauge syringe needle connected to two 10 mL syringes. The resulting cercarial heads (schistosomula) were separated from their tails by swirling in a petri dish. Concentrated schistosomula were added to a sterile 1.5 mL centrifuge tube and allowed to settle over ice. Schistosomula were transferred to a sterile environment and washed 4 times in Incomplete Medium 169 prior to plating.
Two sets of screening were performed. In the first set, compounds were screened against schistosomula and observations were made at 24 hours, 2 days, 3 days, 4 days, and 6 days. In the second set, compounds were screened against schistosomula with observations at 24 hours, 2 days, 3 days, and 4 days and adult worms at 7 hours, 24 hours, 4 days, and 6 days.
Plates contain 200 schistosomula/well in […] complete Basch medium and were maintained at 37° C. in a 5% CO2 atmosphere. All compounds were tested in duplicate with at least two experimental replicates. Compounds and control compounds were added to the plates using the Biomek FXp using 96-well disposable tips. Final concentration of DMSO in each well was 0.5%.
A semi-quantitative and controlled nomenclature for phenotypes that can arise as a result of compound insult to both schistosomula and adults was utilized (Abdulla M H, et al., PLoS Negl Trop Dis 2009, 3:e478). Phenotypes were recorded by visual inspection and on a flexible time basis but at least at 24 h and 4 day time-points in the case of large scale screening. […] To help eliminate bias, two screen analysts scored phenotypes ‘blind’ both to knowledge of the contents of each screening plate and the phenotypes scored by his/her colleague. Upon completing their individual assessments, each analyst's ‘hit sheet’ was then compared to derive a ‘consensus hit sheet’. Discrepancies in analysts' hit sheets were re-evaluated under the microscope to eventually make a consensus hit call.
Hyper-coiled and coiled represent a verbal description of the visual phenotype as compared to the DMSO control. The + and ++ and +++ means more of the phenotype which preceded it. The − means less of the phenotype which preceded it. Results

SMILES | Schistosomula phenotype day 6 | Schistosomula phenotype day 3 | other results
COCCNc1ccc(C#N)c(Oc2ccc3c(c2)COB3O)n1 [2-(1-Hydroxy-1,3-dihydro-benzo[c][1,2]oxaborol-5-yloxy)-6-(2-methoxy-ethylamino)-nicotinonitrile] | O+ R and Partial D (Partial D=partial killing of worm population) | – | –
N#Cc1ccc(Oc2ccc3c(c2)COB3O)nc1OCC(F)F [2-(2,2-Difluoro-ethoxy)-6-(1-hydroxy-1,3-dihydro-benzo[c][1,2]oxaborol-5-yloxy)-nicotinonitrile] | R O+ and Partial D (Partial D=partial killing of worm population) | O+ and Deg-M (Deg-M=worms in morphological disarray but still living) | –
N#Cc1ccc(Oc2ccc3c(c2)COB3O)nc1NCCOCc1ccccc1 [2-(2-Benzyloxy-ethylamino)-6-(1-hydroxy-1,3-dihydro-benzo[c][1,2]oxaborol-5-yloxy)-nicotinonitrile] | R O+ and Partial D (Partial D=partial killing of worm population) | O+ and Deg-M (Deg-M=worms in morphological disarray but still living) | Schistosomula phenotype 24 h: O+ and some and deg-M
Cl.N#Cc1ccc(Oc2ccc3c(c2)COB3O)c(OCc2ccccn2)c1 [2-((5-Cyano-2-(1-hydroxy-1,3-dihydrobenzo[c][1,2]oxaborol-5-yloxy)phenoxy)methyl)pyridine hydrochloride] | – | – | Schistosomula phenotype 24 h (hydrochloride): R (R=round) and O++; Schistosomula phenotype day 2 (hydrochloride): O+, and M−; Schistosomula phenotype day 4 (hydrochloride): O+, and Partial D (Partial D=partial killing of worm population); Schistosomula phenotype day 6 (hydrochloride): O+, and Partial and D, R
N#Cc1ccc(Oc2ccc3c(c2)COB3O)nc1NCc1ccccc1 [2-Benzylamino-6-(1-hydroxy-1,3-dihydro-benzo[c][1,2]oxaborol-5-yloxy)-nicotinonitrile] | R O and Partial D (Partial D=partial killing of worm population) | – | Schistosomula phenotype 24 h: O++ and some and deg-M
CCOc1nc(Oc2ccc3c(c2)COB3O)ccc1C#N [2-Ethoxy-6-(1-hydroxy-1,3-dihydro-benzo[c][1,2]oxaborol-5-yloxy)-nicotinonitrile] | O+ R and Partial D (Partial D=partial killing of worm population) | O+ and partial D | –
N#Cc1ccc(Oc2ccc3c(c2)COB3O)c(OCC2CCCC2)c1 [3-(Cyclopentylmethoxy)-4-(1-hydroxy-1,3-dihydrobenzo[c][1,2]oxaborol-5-yloxy)benzonitrile] | – | – | Schistosomula phenotype day 4: R O− and Deg-M D
N#Cc1ccc(Oc2ccc3c(c2)COB3O)c(OC2CCCC2)c1 [3-(Cyclopentyloxy)-4-(1-hydroxy-1,3-dihydrobenzo[c][1,2]oxaborol-5-yloxy)benzonitrile] | R deg- and M D | O+ and Partial D (Partial D=partial killing of worm population) | Schistosomula phenotype 24 h: O++ and deg-M
N#Cc1ccc(Oc2ccc3c(c2)COB3O)c(OCC2CC2)c1 [3-(Cyclopropylmethoxy)-4-(1-hydroxy-1,3-dihydrobenzo[c][1,2]oxaborol-5-yloxy)benzonitrile] | – | O+ and partial D | –
COCCOc1nccc(Oc2ccc3c(c2)COB3O)c1C#N [4-(1-Hydroxy-1,3-dihydro-benzo[c][1,2]oxaborol-5-yloxy)-2-(2-methoxyethoxy)-nicotinonitrile] | O+ R and Partial D (Partial D=partial killing of worm population) | O+ and some and partial D | Schistosomula phenotype 24 h: R (R=round) and O+
CC(C)OC(=O)c1ccc(Oc2ccc3c(c2)COB3O)c(F)c1 [5-(2-Fluoro-4-isopropyloxycarbonylphenoxy)-1-hydroxy-2,1-benzoxaborole] | – | – | Schistosomula phenotype day 4: O−, R
N#Cc1ccc(Oc2ccc3c(c2)COB3O)cc1C(F)(F)F [5-(4-Cyano-3-trifluoromethylphenoxy)-1,3-dihydro-1-hydroxy-2,1-benzoxaborole] | O, (O=overactive) and some and deg-m | – | Schistosomula phenotype day 2: O−, and deg-m−; Schistosomula phenotype day 4: O, (O=overactive) and some and deg-m
CCOC(=O)c1ccc(Oc2ccc3c(c2)COB3O)c(Oc2cc(C#N)ccn2)c1 [5-[4-Ethoxycarbonyl-2-(4-cyanopyridin-2-yloxy)phenoxy]-1,3-dihydro-1-hydroxy-2,1-benzoxaborole] | R, O,; also recorded: Partial D (Partial D=partial killing of worm population) | – | Schistosomula phenotype day 2: O, (O=overactive); also recorded: deg-m; Schistosomula phenotype day 4: O, (O=overactive) and some and deg-m
N#Cc1ccc(Oc2ccc3c(c2)COB3O)nc1OCC(F)(F)F [6-(1-Hydroxy-1,3-dihydro-benzo[c][1,2]oxaborol-5-yloxy)-2-(2,2,2-trifluoro-ethoxy)-nicotinonitrile] | O+ R and Partial D (Partial D=partial killing of worm population) | – | –
COCCNc1nc(Oc2ccc3c(c2)COB3O)ccc1C#N [6-(1-Hydroxy-1,3-dihydro-benzo[c][1,2]oxaborol-5-yloxy)-2-(2-methoxy-ethylamino)-nicotinonitrile] | R O and some and partial D | – | –
CC(=O)OCCOc1nc(Oc2ccc3c(c2)COB3O)ccc1C#N [6-(1-Hydroxy-1,3-dihydro-benzo[c][1,2]oxaborol-5-yloxy)-2-(acetyloxyethoxy)-nicotinonitrile] | R O+ and Partial D (Partial D=partial killing of worm population) | O+ and partial D | –
CC(C)COc1nc(Oc2ccc3c(c2)COB3O)ccc1C#N [6-(1-Hydroxy-1,3-dihydro-benzo[c][1,2]oxaborol-5-yloxy)-2-isobutoxy-nicotinonitrile] | – | – | Schistosomula phenotype 24 h: R− and O−; Schistosomula phenotype day 4: R (R=round) and O−
CC(C)Oc1nc(Oc2ccc3c(c2)COB3O)ccc1C#N [6-(1-Hydroxy-1,3-dihydro-benzo[c][1,2]oxaborol-5-yloxy)-2-isopropoxy-nicotinonitrile] | R O+ and Partial D (Partial D=partial killing of worm population) | O+ and Deg-M (Deg-M=worms in morphological disarray but still living) | –
CCCOc1nc(Oc2ccc3c(c2)COB3O)ccc1C#N [6-(1-Hydroxy-1,3-dihydro-benzo[c][1,2]oxaborol-5-yloxy)-2-propoxy-nicotinonitrile] | R O and partial D | O+ and Deg-M (Deg-M=worms in morphological disarray but still living) | –
N#Cc1ccc(Oc2ccc3c(c2)COB3O)nc1N1CCCC1 [6-(1-Hydroxy-1,3-dihydro-benzo[c][1,2]oxaborol-5-yloxy)-2-pyrrolidin-1-yl-nicotinonitrile] | R O and Partial D (Partial D=partial killing of worm population) | O+ and Deg-M (Deg-M=worms in morphological disarray but still living) | –
N#Cc1cnc(Oc2ccc3c(c2)COB3O)cc1OCCOC1CCCCO1 (centres unmarked) [6-(1-Hydroxy-1,3-dihydro-benzo[c][1,2]oxaborol-5-yloxy)-4-[2-(tetrahydro-pyran-2-yloxy)-ethoxy]-nicotinonitrile] | Deg-M D | O++ and deg-M | Schistosomula phenotype 24 h: O++ and deg-M
COCCN(C)c1nc(Oc2ccc3c(c2)COB3O)ccc1C#N [6-(1-hydroxy-1,3-dihydro-benzo[c][1,2]oxaborol-5-yloxy)-2-[(2-methoxy-ethyl)-methyl-amino]-nicotinonitrile] | R O and Partial D (Partial D=partial killing of worm population) | O+ and Deg-M (Deg-M=worms in morphological disarray but still living) | –
CCOC(=O)c1ccc(Oc2ccc3c(c2)COB3O)nc1OCC [Ethyl 2-ethoxy-6-(1-hydroxy-1,3-dihydrobenzo[c][1,2]oxaborol-5-yloxy)nicotinate] | R, (R=round); also recorded: Partial D (Partial D=partial killing of worm population) | – | Schistosomula phenotype day 2: (shrunk); Schistosomula phenotype day 4: O, (O=overactive); also recorded: deg-m
CCOC(=O)c1cnc(Oc2ccc3c(c2)COB3O)c(Cl)c1 [Ethyl 5-chloro-6-(1-hydroxy-1,3-dihydrobenzo[c][1,2]oxaborol-5-yloxy)nicotinate] | R O and deg-M and partial D | – | –
